# Results reported in US20030236212A1, “Functionalized long chain derivatives as acyl coenzyme-A mimics, compositions thereof, and methods of cholesterol management and related uses” (priority 2002, published 2003).
# Like-named read-outs stand apart in the source and are kept apart here.
# Assays:
# obese female Zucker rats = test: Oral daily treatment of obese female Zucker rats for 14 days (body weight, serum lipids, glucose, insulin); format: in vivo, rat; set-up: HDL-C / Glucose / Insulin / NEFA / BHA / TG / TC / Non HDL-C: unit not given here
# Method: The dosing vehicle was administered to control animals in parallel experiments.
# Body weight was determined daily prior to dosing. Animals were allowed free access to rodent chow and water throughout the study. Blood glucose was determined after a 6-hour fast in the afternoon without anesthesia from a tail vein. Serum was also prepared from a blood sample subsequently obtained from the orbital venous plexus (with O2/CO2 anesthesia) prior to and after one week treatment and used lipid and insulin determinations. At two weeks, blood glucose was again determined after a 6-hour fast without anesthesia from a tail vein. Soon thereafter, animals were sacrificed by CO2 inhalation in the afternoon and cardiac blood serum was collected and assessed for various lipids and insulin.
# primary rat hepatocytes = test: Synthesis of total lipids (14C-acetate labeling) in primary rat hepatocytes; format: cell-based; details: rat hepatocyte cells, 14C-acetate 4 hr, vs vehicle control
# Method: A male Sprague-Dawley rate was anesthetized by administration of sodium pentobarbitol by intraperitoneal at 80 mg/kg. In situ perfusion of the liver was performed as follows. The abdomen of the animal was opened, the portal vein canulated, and the liver perfused with WOSH solution (149 mM NaCl, 9.2 mM Na HEPES, 1.7 mM Fructose, 0.5 mM EGTA, 0.029 mM Phenol red, 10 U/ml heparin, pH 7.5) at a flow rate of 30 ml/min for 6 minutes. To digest the liver, DSC solution (6.7 mM KCl, 143 mM NaCl, 9.2 mM Na HEPES, 5 mM CaCl2-2H2O, 1.7 mM Fructose, 0.029 mM Phenol red, 0.2% BSA, 100 U/ml collagenase Type 1,160 BAEE/ml trypsin inhibitor, pH 7.5) was perfused through the liver at a flow rate of 30 ml/min for 6 minutes at a temperature of 37° C. After digestion, cells were dispersed in a solution of DMEM-(DMEM containing 2 mM GlutMax-1, 0.2% BSA, 5% FBS, 12 nM insulin, 1.2 μM hydrocortisone) to stop the digestion process. The crude cell suspension was filtered through three layers of stainless steel mesh with pore sizes of 250, 106, and 75 μm respectively. Filtered cells were centrifuged at 50×g for two minutes and the supernatant discarded. The resulting cell pellet was resuspended in DMEM and centrifuged again. This final cell pellet was resuspended in DMEM+HS solution (DMEM containing 2 mM GlutMax-1, 20 mM delta-aminolevulinic acid, 17.4 mM MEM nonessential amino acids, 20% FBS, 12 nM insulin, 1.2 μM hydrocortisone) and plated to form monolayer cultures at a density of 100×10^3 cells/cm^2 on collagen coated culture dishes.
# To test the effect of an illustrative compound of the invention on synthesis rates of total lipids, the monolayer cultures were exposed to 1, 3, 10, 30, 100, or 300 μM of Compound A or 10 μM of Compound 1 in DMEM+containing 1 μCi/ml 14C-acetate, D-glucose, hepes, glutamine, leucine, alanine, lactate, pyruvate, non-essential amino acids, BSA, and gentamicine. Control cells were exposed to the same media lacking lovastatin or the test compounds. All cells were exposed to 0.1% DMSO. Metabolic labeling with ^14C-acetate continued for 4 hr at 37° C. After labeling, cells were washed twice with 1 mL of PBS followed by addition of scintallant (Microscent E) and counted on Topcount®.
# [1] = obese female Zucker rats, oral gavage daily 14 days, 100 mg/kg
# [2] = obese female Zucker rats, oral, 14 days, 100 mg/kg/day (Table 1)
smiles,measurement,setting,value
"CC(C)(CCCCCC(=O)CCCCCC(C)(C)COP(=O)(O)O)COP(=O)(O)O.N.N [Compound E, Phosphoric Acid mono-(2,2,14,14-tetramethyl-8-oxo-15-phosphonooxy-pentadecyl) Ester, Diammonium Salt]",change in vivo at 10 mg/kg/day,"obese female Zucker rats; Rattus norvegicus, 336 h, obese female Zucker rats, oral daily, fourteen days, 10 mg/kg/day, read-out: % wt. gain",11%
same,change in vivo at 10 mg/kg,"obese female Zucker rats; Rattus norvegicus, 336 h, obese female Zucker rats, oral daily, fourteen days, 10 mg/kg/day, read-out: BHA, Percent Change from Pre-treatment",140%
same,change in vivo at 10 mg/kg,"obese female Zucker rats; Rattus norvegicus, 336 h, obese female Zucker rats, oral daily, fourteen days, 10 mg/kg/day, read-out: Glucose, Percent Change from Pre-treatment",-6%
same,change in vivo at 10 mg/kg,"obese female Zucker rats; Rattus norvegicus, 336 h, obese female Zucker rats, oral daily, fourteen days, 10 mg/kg/day, read-out: HDL-C, Percent Change from Pre-treatment",129%
same,change in vivo at 10 mg/kg,"obese female Zucker rats; Rattus norvegicus, 336 h, obese female Zucker rats, oral daily, fourteen days, 10 mg/kg/day, read-out: Insulin, Percent Change from Pre-treatment",25%
same,change in vivo at 10 mg/kg,"obese female Zucker rats; Rattus norvegicus, 336 h, obese female Zucker rats, oral daily, fourteen days, 10 mg/kg/day, read-out: NEFA, Percent Change from Pre-treatment",-5%
same,change in vivo at 10 mg/kg,"obese female Zucker rats; Rattus norvegicus, 336 h, obese female Zucker rats, oral daily, fourteen days, 10 mg/kg/day, read-out: Non HDL-C, Percent Change from Pre-treatment",6%
same,change in vivo at 10 mg/kg,"obese female Zucker rats; Rattus norvegicus, 336 h, obese female Zucker rats, oral daily, fourteen days, 10 mg/kg/day, read-out: TC, Percent Change from Pre-treatment",3%
same,change in vivo at 10 mg/kg,"obese female Zucker rats; Rattus norvegicus, 336 h, obese female Zucker rats, oral daily, fourteen days, 10 mg/kg/day, read-out: TG, Percent Change from Pre-treatment",39%
same,change in vivo at 30 mg/kg/day,"obese female Zucker rats; Rattus norvegicus, 336 h, obese female Zucker rats, oral daily, fourteen days, 30 mg/kg/day, read-out: % wt. gain",10%
same,change in vivo at 30 mg/kg,"obese female Zucker rats; Rattus norvegicus, 336 h, obese female Zucker rats, oral daily, fourteen days, 30 mg/kg/day, read-out: BHA, Percent Change from Pre-treatment",73%
same,change in vivo at 30 mg/kg,"obese female Zucker rats; Rattus norvegicus, 336 h, obese female Zucker rats, oral daily, fourteen days, 30 mg/kg/day, read-out: Glucose, Percent Change from Pre-treatment",-1%
same,change in vivo at 30 mg/kg,"obese female Zucker rats; Rattus norvegicus, 336 h, obese female Zucker rats, oral daily, fourteen days, 30 mg/kg/day, read-out: HDL-C, Percent Change from Pre-treatment",174%
same,change in vivo at 30 mg/kg,"obese female Zucker rats; Rattus norvegicus, 336 h, obese female Zucker rats, oral daily, fourteen days, 30 mg/kg/day, read-out: Insulin, Percent Change from Pre-treatment",-12%
same,change in vivo at 30 mg/kg,"obese female Zucker rats; Rattus norvegicus, 336 h, obese female Zucker rats, oral daily, fourteen days, 30 mg/kg/day, read-out: NEFA, Percent Change from Pre-treatment",-28%
same,change in vivo at 30 mg/kg,"obese female Zucker rats; Rattus norvegicus, 336 h, obese female Zucker rats, oral daily, fourteen days, 30 mg/kg/day, read-out: Non HDL-C, Percent Change from Pre-treatment",51%
same,change in vivo at 30 mg/kg,"obese female Zucker rats; Rattus norvegicus, 336 h, obese female Zucker rats, oral daily, fourteen days, 30 mg/kg/day, read-out: TC, Percent Change from Pre-treatment",126%
same,change in vivo at 30 mg/kg,"obese female Zucker rats; Rattus norvegicus, 336 h, obese female Zucker rats, oral daily, fourteen days, 30 mg/kg/day, read-out: TG, Percent Change from Pre-treatment",-2%
same,change in vivo at 100 mg/kg/day,"obese female Zucker rats; Rattus norvegicus, 336 h, obese female Zucker rats, oral daily, fourteen days, 100 mg/kg/day, read-out: % wt. gain",4%
same,change in vivo at 100 mg/kg,"obese female Zucker rats; Rattus norvegicus, 336 h, obese female Zucker rats, oral daily, fourteen days, 100 mg/kg/day, read-out: BHA, Percent Change from Pre-treatment",134%
same,change in vivo at 100 mg/kg,"obese female Zucker rats; Rattus norvegicus, 336 h, obese female Zucker rats, oral daily, fourteen days, 100 mg/kg/day, read-out: Glucose, Percent Change from Pre-treatment",-4%
same,change in vivo at 100 mg/kg,"obese female Zucker rats; Rattus norvegicus, 336 h, obese female Zucker rats, oral daily, fourteen days, 100 mg/kg/day, read-out: HDL-C, Percent Change from Pre-treatment",246%
same,change in vivo at 100 mg/kg,"obese female Zucker rats; Rattus norvegicus, 336 h, obese female Zucker rats, oral daily, fourteen days, 100 mg/kg/day, read-out: Insulin, Percent Change from Pre-treatment",-15%
same,change in vivo at 100 mg/kg,"obese female Zucker rats; Rattus norvegicus, 336 h, obese female Zucker rats, oral daily, fourteen days, 100 mg/kg/day, read-out: NEFA, Percent Change from Pre-treatment",-40%
same,change in vivo at 100 mg/kg,"obese female Zucker rats; Rattus norvegicus, 336 h, obese female Zucker rats, oral daily, fourteen days, 100 mg/kg/day, read-out: Non HDL-C, Percent Change from Pre-treatment",20%
same,change in vivo at 100 mg/kg,"obese female Zucker rats; Rattus norvegicus, 336 h, obese female Zucker rats, oral daily, fourteen days, 100 mg/kg/day, read-out: TC, Percent Change from Pre-treatment",161%
same,change in vivo at 100 mg/kg,"obese female Zucker rats; Rattus norvegicus, 336 h, obese female Zucker rats, oral daily, fourteen days, 100 mg/kg/day, read-out: TG, Percent Change from Pre-treatment",-51%
same,melting point,,187 to 189 °C
CC(C)(CCCCOCCCCC(C)(C)COP(=O)(O)O)COP(=O)(O)O.N.N.N.N [Compound A],serum insulin relative to pretreatment,"obese female Zucker rats; fasted obese female Zucker rats, two weeks of treatment, 100 mg/kg",rose slightly
same,liver to body weight,obese female Zucker rats; [1],increased
same,serum non-esterified fatty acids,obese female Zucker rats; [1],reduced
same,serum total cholesterol,obese female Zucker rats; [1],elevated
same,serum triglycerides,obese female Zucker rats; [1],reduced
same,"weight gain, percent of initial weight after two weeks",obese female Zucker rats; [1],1%
same,β-hydroxy butyrate levels,obese female Zucker rats; [1],elevated
same,BHA,obese female Zucker rats; [2],1 ± 0.5
same,Glucose,obese female Zucker rats; [2],5.6 ± 4.2
same,HDL-C,obese female Zucker rats; [2],186.7 ± 51.5
same,Insulin,obese female Zucker rats; [2],10.6 ± 26.3
same,NEFA,obese female Zucker rats; [2],0.059 ± 0.003
same,Non HDL-C,obese female Zucker rats; [2],−30.6 ± 15.4
same,TC,obese female Zucker rats; [2],−85.7 ± 1.2
same,TG,obese female Zucker rats; [2],833.8 ± 209.9
same,ratio of non-HDL cholesterol to HDL cholesterol content,"obese female Zucker rats; obese female Zucker rats, relative to control and reference compound-treated animals, 100 mg/kg",improved
same,HDL-cholesterol elevation,"obese female Zucker rats; obese female Zucker rats, two-week treatment, 100 mg/kg",9 fold
same,body weight increases,"obese female Zucker rats; obese female Zucker rats, versus reference compound-treated animals, 100 mg/kg",did not cause the body weight increases
same,reduction of rates of total lipid synthesis,primary rat hepatocytes; 3 μM,at least 97%
same,reduction of rates of total lipid synthesis,primary rat hepatocytes; 10 μM,at least 97%
same,melting point,,185 to 186 °C
